Test results from patent US8685974B2 (Bayer CropScience AG, priority 2009, dated 2014).
Where two headings read alike, the source gives them in different places. Marks after values point to notes of the source that are not given here.

Compound | logP (pH2.7) (pH 2.7) | log p (pH 2.7) | other results
4-[3-(5-Chloro-2-thienyl)-1-isobutyl-1H-pyrazol-4-yl]-N-propylpyridin-2-amine 1-oxide | 1.90 |  | 
4-[5-Bromo-3-(5-chloro-2-thienyl)-1-(4-methoxybenzyl)-1H-pyrazol-4-yl]pyridine and 4-[3-bromo-5-(5-chloro-2-thienyl)-1-(4-methoxybenzyl)-1H-pyrazol-4-yl]pyridine | 3.53 |  | logP (pH2.7), minor isomer (pH 2.7): 3.0
CC(C)Cn1cc(-c2cc[n+]([O-])c(N)c2)c(-c2ccc(Cl)s2)n1 [2-Amino-4-[1-isobutyl-3-(5-chloro-2-thienyl)-1H-pyrazol-4-yl]pyridine N oxide] | 2.39 |  | 
CC(C)Cn1ncc(-c2cc[n+]([O-])c(N)c2)c1-c1ccc(Cl)s1 [2-Amino-4-[1-isobutyl-5-(5-chloro-2-thienyl)-1H-pyrazol-4-yl]pyridine N oxide] | 2.21 |  | 
CC(C)Cn1cc(-c2ccnc(N)c2)c(-c2ccc(Cl)s2)n1 [2-Amino-4-[1-isobutyl-(3/5)-(5-chloro-2-thienyl)-1H-pyrazol-4-yl]pyridine] | 2.04 |  | logP (pH2.7), minor isomer (pH 2.7): 1.93
CC(C)Cn1cc(-c2cc[n+]([O-])c(NCc3ccccc3)c2)c(-c2ccc(Cl)s2)n1 [2-Benzylamino-4-[1-isobutyl-3-(5-chloro-2-thienyl)-1H-pyrazol-4-yl]pyridine N oxide] | 3.65 |  | 
CC(C)Cn1ncc(-c2cc[n+]([O-])c(NCc3ccccc3)c2)c1-c1ccc(Cl)s1 [2-Benzylamino-4-[1-isobutyl-5-(5-chloro-2-thienyl)-1H-pyrazol-4-yl]pyridine N oxide] | 3.48 |  | 
CC(C)Cn1cc(-c2cc[n+]([O-])c(Cl)c2)c(-c2ccc(Cl)s2)n1 [2-Chloro-4-[1-isobutyl-3-(5-chloro-2-thienyl)-1H-pyrazol-4-yl]pyridine-N-oxyde] | 2.82 |  | 
CC(C)Cn1ncc(-c2cc[n+]([O-])c(Cl)c2)c1-c1ccc(Cl)s1 [2-Chloro-4-[1-isobutyl-5-(5-chloro-2-thienyl)-1H-pyrazol-4-yl]pyridine-N-oxyde] | 3.06 |  | 
[O-][n+]1ccc(-c2c[nH]nc2-c2ccc(Cl)s2)cc1Cl [2-Chloro-4-[3-(5-chloro-2-thienyl)-1H-pyrazol-4-yl]pyridine N oxyde] | 1.57 |  | 
C#CCNc1cc(-c2cn(CC(C)C)nc2-c2ccc(Cl)s2)cc[n+]1[O-] [2-Propargylamino-4-[1-isobutyl-3-(5-chloro-2-thienyl)-1H-pyrazol-4-yl]pyridine-N-oxyde] | 2.70 |  | 
C#CCNc1cc(-c2cnn(CC(C)C)c2-c2ccc(Cl)s2)cc[n+]1[O-] [2-Propargylamino-4-[1-isobutyl-5-(5-chloro-2-thienyl)-1H-pyrazol-4-yl]pyridine-N-oxyde] | 2.92 |  | 
FC(F)(F)c1ccc(-c2c(-c3ccncc3)cnn2C2CCCCO2)s1 (stereo not shown) [4-[1-(2-tetrahydropyrannyl)-5-(5-trifluoromethyl-2-thienyl)-1H-pyrazol-4-yl]pyridine] | 1.96 |  | 
CC(C)n1cc(-c2ccncc2)c(-c2cccs2)n1 [4-[1-Isopropyl-(3/5)-(2-thienyl)-1H-pyrazol-4-yl]pyridine] | 1.27 |  | logP (pH2.7), minor isomer (pH 2.7): 1.33
CC(C)n1cc(-c2ccncc2)c(-c2ccc(Br)s2)n1 [4-[1-Isopropyl-(3/5)-(5-bromo-2-thienyl)-1H-pyrazol-4-yl]pyridine] | 1.88 |  | logP (pH2.7), minor isomer (pH 2.7): 1.76
CC(C)Cn1cc(-c2ccncc2)c(-c2cc3sccc3s2)n1 [4-[1-isobutyl-(3/5)-(3-thieno[3,2-b]thiophen-2-yl)-1H-pyrazol-4-yl]pyridine] | 2.07 |  | logP (pH2.7), minor isomer (pH 2.7): 2.02
CC(C)n1cc(-c2ccncc2)c(-c2ccc(C(F)(F)F)s2)n1 [4-[1-isopropyl-(3/5)-(5-trifluoromethyl-2-thienyl)-1H-pyrazol-4-yl]pyridine] | 2.20 |  | logP (pH2.7), minor isomer (pH 2.7): 2.08
CCC(C)n1cc(-c2cc[n+]([O-])cc2)c(-c2ccc(Cl)s2)n1 (stereo not shown) [4-[1-sec-butyl-3-(5-chloro-2-thienyl)-1H-pyrazol-4-yl]pyridine N oxide] | 2.5 |  | 
CCC(C)n1nc(-c2ccc(Cl)s2)c(-c2ccncc2)c1Br (stereo not shown) [4-[5-Bromo-1-secbutyl-(3/5)-(5-chloro-2-thienyl)-1H-pyrazol-4-yl]pyridine] | 3.69 |  | 
CC(C)Nc1nccc(-c2cn(C3CCCC3)nc2-c2ccc(Cl)s2)n1 [4-[(3/5)-(5-Chloro-2-thienyl)-1-cyclopentyl-1H-pyrazol-4-yl]-2-(isopropylamino)pyrimidine] | 3.61 |  | logP (pH2.7), minor isomer (pH 2.7): 3.33
CC(C)n1cc(-c2ccnc(N=C(c3ccccc3)c3ccccc3)c2)c(-c2ccc(Cl)s2)n1 [4-[(3/5)-(5-Chloro-2-thienyl)-1-isopropyl-1H-pyrazol-4-yl]-N-(diphenylmethylene)pyridin-2-amine] | 4.46 |  | logP (pH2.7), minor isomer (pH 2.7): 3.96

Compound | logP (pH2.7) (pH 2.7) | log p (pH 2.7) | other results
CC(C)n1cc(-c2ccnc(N)c2)c(-c2ccc(Cl)s2)n1 [4-[(3/5)-(5-Chloro-2-thienyl)-1-isopropyl-1H-pyrazol-4-yl]pyridin-2-amine] | 1.78 |  | logP (pH2.7), minor isomer (pH 2.7): 1.72
CC#Cc1c(-c2ccncc2)c(-c2ccc(Cl)s2)nn1C(C)C [4-[(3/5)-(5-Chloro-2-thienyl)-1-isopropyl-5-(prop-1-yn-1-yl)-1H-pyrazol-4-yl]pyridine] | 2.78 |  | logP (pH2.7), minor isomer (pH 2.7): 2.21
CC#Cc1c(-c2ccncc2)c(-c2ccc(Cl)s2)nn1Cc1ccc(OC)cc1 [4-[(3/5)-(5-chloro-2-thienyl)-1-(4-methoxybenzyl)-5-(prop-1-yn-1-yl)-1H-pyrazol-4-yl]pyridine] | 3.11 |  | logP (pH2.7), minor isomer (pH 2.7): 2.61
Clc1sc(-c2n[nH]cc2-c2ccncc2)c(Cl)c1Cl [Example 2] |  | 1.52^[b] | 
CCC(C)n1ncc(-c2ccncc2)c1-c1ccc(Cl)s1 (stereo not shown) [Example 9] |  | 1.91^[b] | 
CC(C)(C)n1ncc(-c2ccncc2)c1-c1ccc(Cl)s1 [Example 10] |  | 1.95^[b] | 
Clc1ccc(-c2c(-c3ccncc3)cnn2C2CCCCC2)s1 [Example 12] |  | 2.26^[b] | 
Clc1ccc(-c2c(-c3ccncc3)cnn2C2CCCC2)s1 [Example 16] |  | 2.13^[b] | 
CC(n1ncc(-c2ccncc2)c1-c1ccc(Cl)s1)C(C)(C)C (stereo not shown) [Example 19] |  | 2.47^[b] | 
Clc1ccc(-c2nn(-c3ccccc3)cc2-c2ccncc2)s1 [Example 22] |  | 2.63^[b] | 
Clc1ccc(-c2c(-c3ccncc3)cnn2-c2ccccc2)s1 [Example 23] |  | 1.88^[b] | 
CC(C)(C)Cn1ncc(-c2ccncc2)c1-c1ccc(Cl)s1 [Example 25] |  | 2.17^[b] | 
CC(C)CCn1cc(-c2ccncn2)c(-c2ccc(Cl)s2)n1 [Example 27] |  | 3.8^[b] | 
CC(C)CC(C)n1ncc(-c2ccncn2)c1-c1ccc(Cl)s1 (stereo not shown) [Example 28] |  | 4.29^[b] | 
CC(C)=CCn1ncc(-c2ccncn2)c1-c1ccc(Cl)s1 [Example 29] |  | 3.44^[b] | 
CC(C)n1ncc(-c2ccncn2)c1-c1ccc(Cl)s1 [Example 30] |  | 2.94^[b] | 
CCC(C)n1ncc(-c2ccncn2)c1-c1ccc(Cl)s1 (stereo not shown) [Example 31] |  | 3.34^[b] | 
CC(C)C(C)n1ncc(-c2ccncn2)c1-c1ccc(Cl)s1 (stereo not shown) [Example 32] |  | 3.8^[b] | 
CC(n1ncc(-c2ccncn2)c1-c1ccc(Cl)s1)C(C)(C)C (stereo not shown) [Example 33] |  | 4.46^[b] | 
CC(C)(C)Cn1ncc(-c2ccncn2)c1-c1ccc(Cl)s1 [Example 34] |  | 3.82^[b] | 
Cc1ccc(-c2[nH]ncc2-c2ccncc2)s1 [Example 35] |  | 0.77^[b] | 

Compound | logP (pH2.7) (pH 2.7) | log p (pH 2.7) | other results
CC(=O)c1ccc(-c2[nH]ncc2-c2ccncc2)s1 [Example 36] |  | 0.62^[b] | 
CCCCNC(=O)c1ccc(-c2[nH]ncc2-c2ccncc2)s1 [Example 37] |  | 0.0^[b] | 
CC(C)n1ncc(-c2ccncc2)c1-c1ccc(Cl)s1 [Example 39] |  | 1.7^[b] | log p (pH 2.3): 1.63^[a];
Clc1cc(-c2c[nH]nc2-c2ccc(Cl)s2)ccn1 [Example 40] |  |  | log p (pH 2.3): 2.75^[a]
CCC(CC)n1ncc(-c2ccncc2)c1-c1ccc(Cl)s1 [Example 41] |  |  | log p (pH 2.3): 2.08^[a]
Clc1ccc(-c2c(-c3ccncc3)cnn2Cc2ccccc2)s1 [Example 42] |  |  | log p (pH 2.3): 1.94^[a]
Clc1ccc(-c2nn(Cc3ccccc3)cc2-c2ccncc2)s1 [Example 43] |  |  | log p (pH 2.3): 2.35^[a]
Clc1ccc(-c2n[nH]c(Br)c2-c2ccncc2)s1 [Example 44] |  | 1.4^[b] | 
C=CCn1cc(-c2ccncc2)c(-c2ccc(Cl)s2)n1 [Example 48] |  | 1.65^[b] | logP value of the minor isomer (in parenthesis in column Isomer ratio [d]) (pH 2.7): (1.50)
COCCn1cc(-c2ccncc2)c(-c2ccc(Cl)s2)n1 [Example 49] |  | 1.42^[b] | logP value of the minor isomer (in parenthesis in column Isomer ratio [d]) (pH 2.7): (1.29)
N#CCn1cc(-c2ccncc2)c(-c2ccc(Cl)s2)n1 [Example 53] |  | 1.4^[b] | logP value of the minor isomer (in parenthesis in column Isomer ratio [d]) (pH 2.7): (1.10)
[O-][n+]1ccc(-c2c[nH]nc2-c2ccc(Cl)s2)cc1Cl [Example 59] |  |  | log p (pH 7.8): 1.57^[c]
CCCNc1nccc(-c2c[nH]nc2-c2ccc(Cl)s2)n1 [Example 65] |  |  | log p (pH 2.3): 1.75^[a]
Clc1ccc(-c2n[nH]c(C3CC3)c2-c2ccncc2)s1 [Example 67] |  | 1.36^[b] | 
Cc1[nH]nc(-c2ccc(Cl)s2)c1-c1ccncc1 [Example 68] |  | 1.07^[b] | 
COc1nccc(-c2c[nH]nc2-c2ccc(Cl)s2)n1 [Example 69] |  |  | log p (pH 2.3): 2.23^[a]
CC(C)Cn1cc(-c2ccnc(Cl)c2)c(-c2ccc(Cl)s2)n1 [Example 70] |  |  | log p (pH 2.3): 4.85^[a]
CCCNc1cc(-c2c[nH]nc2-c2ccc(Cl)s2)cc[n+]1[O-] [Example 71] |  |  | log p (pH 2.3): 1.9^[a]
CC(C)Cn1ncc(-c2ccnc(Cl)c2)c1-c1ccc(Cl)s1 [Example 72] |  |  | log p (pH 2.3): 4.65^[a]
CC(C)Cn1cc(-c2cc[n+]([O-])c(NCc3ccccc3)c2)c(-c2ccc(Cl)s2)n1 [Example 73] |  |  | log p (pH 2.3): 3.73^[a]
CC(C)Cn1cc(-c2cc[n+]([O-])c(Cl)c2)c(-c2ccc(Cl)s2)n1 [Example 74] |  |  | log p (pH 2.3): 3.04^[a]; logP value of the minor isomer (in parenthesis in column Isomer ratio [d]) (pH 2.3): (2.82)
